≈ marks a conversion by molar mass, not a printed value.
Columns and labels:
[1] = Determination of haemolytic activity; format: cell-based; conditions: human red blood cells (washed, from heparinized fresh blood); human RBCs, 1 h, 37° C.; read-out: RBC: haemolytic activity against human RBCs (EC50)
Method: Hemolysis was determined using a heparinized fraction (1000 IU/mL) of freshly drawn blood. Blood collected in EDTA containing test tubes (Vacutest®, KIMA, Arzergrande, Italy) was used for determination of the hematocrit (hct). The heparinized blood was washed 3× with pre-warmed PBS and adjusted to a final hct of 4%. Derivatives in DMSO (50 mM) were added to a 96-well polypropylene V-bottom plate (NUNC, Fisher Scientific, Oslo, Norway) and serially diluted. The test concentration range was 500-4 μM with DMSO contents ≤1%. A solution of 1% triton X-100 was used as positive control for 100% hemolysis. As negative control a solution of 1% DMSO in PBS buffer was included. No signs of DMSO toxicity were detected. RBCs (1% v/v final concentration) were added to the well plate and incubated at 37° C. and 800 rpm for 1 h. After centrifugation (5 min, 3000 g), 100 μL of each well were transferred to a 96-well flat bottom plate and absorbance was measured at 545 nm with a microplate reader (VersaMax™, Molecular Devices, Sunnyvale, Calif., USA). The percentage of hemolysis was calculated as the ratio of the absorbance in the derivative-treated and surfactant treated samples, corrected for the PBS background. Three independent experiments were performed and EC50 values are presented as averages.

[2] = system: S. epidermidis; assay: Anti-biofilm activity (inhibition of biofilm formation); format: cell-based; conditions: Staphylococcus epidermidis, read-out: Anti-biofilm IC50
[3] = system: E. faecium 50901530; assay: MIC, multi-resistant clinical isolate; format: cell-based, Enterococcus faecium; conditions: for MIC: Enterococcus faecium, read-out: Antimicrobial activity (MIC); for selectivity index (EC50/MIC): RBC EC50 / MIC
Method: (§1) Working solutions of the test derivatives were prepared with up to 100% DMSO and stored at −20° C. If necessary, the solutions were heated to 40-80° C. before testing to facilitate complete dissolution. Double-distilled water was used in all dilutions prepared. […] A microdilution susceptibility test was used for MIC determination according to Clinical and Laboratory Standards Institute, “Methods for Dilution Antimicrobial Sisceptibility Tests for Bacteria That Graw Aerobically”, Approved Standard M07-A9, edition 2012, with modifications as described by Igumnova et al (Bioorg Med Chem, 2016, 24 (22), 5884-5894).
(§2) Briefly, the bacterial inoculum was adjusted to approximately 2.5-3×10^4 cells/mL in Mueller-Hinton broth (MHB, Difco Laboratories, USA), and incubated in a ratio of 1:1 with test derivatives in polystyrene 96-well flat-bottom microplates (NUNC, Roskilde, Denmark). Positive growth control (without test derivatives) and negative control (without bacteria) were included. The reference antibiotic was oxytetracycline hydrochloride (Sigma Aldrich, Saint Louis, Mo., USA). The microplates were incubated in an EnVision microplate reader (Perkin-Elmer, Turku, Finland) placed in an incubator set to 35° C. for 48 h. The MIC value was defined as the lowest concentration of derivative resulting in no bacterial growth as determined by OD600 measurement. All derivatives were tested in three parallels.
(§3) The MIC was determined as explained above with some exceptions; working solutions of test derivatives were prepared from concentrated DMSO stocks stored at room temperature, the density of the bacterial inoculum was increased 40× to 1-1.2×10^6 cells/mL, enterococci were incubated in Brain Heart Infusion broth (BHIB, Difco Laboratories, USA), the microplates were incubated for 24 h, and the derivatives were tested in four parallels.

[4] = system: E. faecium K36-18; assay: MIC, multi-resistant clinical isolate; format: cell-based, Enterococcus faecium; conditions: for MIC: Enterococcus faecium, K3618, read-out: Antimicrobial activity (MIC); for selectivity index (EC50/MIC): RBC EC50 / MIC, E. faecium K36-18
Method: as §1, §2, §3

[5] = system: E. faecium 50758899; assay: MIC, multi-resistant clinical isolate; format: cell-based, Enterococcus faecium; conditions: for MIC: Enterococcus faecium, read-out: Antimicrobial activity (MIC); for selectivity index (EC50/MIC): RBC EC50 / MIC
Method: as §1, §2, §3

[6] = system: E. faecium 50673722; assay: MIC, multi-resistant clinical isolate; format: cell-based, Enterococcus faecium; conditions: for MIC: Enterococcus faecium, read-out: Antimicrobial activity (MIC); for selectivity index (EC50/MIC): RBC EC50 / MIC
Method: as §1, §2, §3

[7] = system: S. aureus N315; assay: MIC, multi-resistant clinical isolate; format: cell-based, Staphylococcus aureus; conditions: for selectivity index (EC50/MIC): RBC EC50 / MIC, S. aureus N315; for MIC: Staphylococcus aureus, N315, read-out: Antimicrobial activity (MIC)
Method: as §1, §2, §3

[8] = system: S. aureus IHT 99040; assay: MIC, multi-resistant clinical isolate; format: cell-based, Staphylococcus aureus; conditions: for selectivity index (EC50/MIC): RBC EC50 / MIC; for MIC: Staphylococcus aureus, IHT99040, read-out: Antimicrobial activity (MIC)
Method: as §1, §2, §3

[9] = system: S. aureus strain 85/2082; assay: MIC, multi-resistant clinical isolate; format: cell-based, Staphylococcus aureus; conditions: for selectivity index (EC50/MIC): RBC EC50 / MIC, S. aureus strain 85/2082; for MIC: Staphylococcus aureus, 85/2082, read-out: Antimicrobial activity (MIC)
Method: as §1, §2, §3

[10] = system: S. aureus strain WIS; assay: MIC, multi-resistant clinical isolate; format: cell-based, Staphylococcus aureus; conditions: for selectivity index (EC50/MIC): RBC EC50 / MIC, S. aureus strain WIS; for MIC: Staphylococcus aureus, read-out: Antimicrobial activity (MIC)
Method: as §1, §2, §3

[11] = system: S. aureus NCTC 10442; assay: MIC, multi-resistant clinical isolate; format: cell-based, Staphylococcus aureus; conditions: for selectivity index (EC50/MIC): RBC EC50 / MIC, S. aureus NCTC 10442; for MIC: Staphylococcus aureus, NCTC10442, read-out: Antimicrobial activity (MIC)
Method: as §1, §2, §3

[12] = system: A. baumanii K12-21; assay: MIC, multi-resistant clinical isolate; format: cell-based, Acinetobacter baumannii; conditions: for MIC: Acinetobacter baumannii, K1221, read-out: Antimicrobial activity (MIC); for selectivity index (EC50/MIC): RBC EC50 / MIC
Method: as §1, §2, §3

[13] = system: A. baumanii K55-13; assay: MIC, multi-resistant clinical isolate; format: cell-based, Acinetobacter baumannii; conditions: for MIC: Acinetobacter baumannii, K5513, read-out: Antimicrobial activity (MIC); for selectivity index (EC50/MIC): RBC EC50 / MIC
Method: as §1, §2, §3

[14] = system: A. baumanii K47-42; assay: MIC, multi-resistant clinical isolate; format: cell-based, Acinetobacter baumannii; conditions: for MIC: Acinetobacter baumannii, K4742, read-out: Antimicrobial activity (MIC); for selectivity index (EC50/MIC): RBC EC50 / MIC
Method: as §1, §2, §3

[15] = system: A. baumanii K44-35; assay: MIC, multi-resistant clinical isolate; format: cell-based, Acinetobacter baumannii; conditions: for MIC: Acinetobacter baumannii, K4435, read-out: Antimicrobial activity (MIC); for selectivity index (EC50/MIC): RBC EC50 / MIC
Method: as §1, §2, §3

[16] = system: antibiotic susceptible Gram-positive and Gram-negative reference strains; assay: MIC assay, ranges over the reference strains; format: cell-based; conditions: range over S. aureus, C. glutamicum, E. coli, P. aeruginosa reference strains; read-out: MIC values against all the reference strains
Method: as §1, §2

[17] = system: E. faecium TUH50-22; assay: MIC, multi-resistant clinical isolate; format: cell-based, Enterococcus faecium
Method: as §1, §2, §3

Row | SMILES | EC50 at 1 h [1] [µg/mL] | IC50 [2] [µg/mL] | MIC [3] [µg/mL] | selectivity index (EC50/MIC) [3] | MIC [4] [µg/mL] | selectivity index (EC50/MIC) [4] | MIC [5] [µg/mL] | selectivity index (EC50/MIC) [5] | MIC [6] [µg/mL] | selectivity index (EC50/MIC) [6] | selectivity index (EC50/MIC) [7] | MIC [7] [µg/mL] | selectivity index (EC50/MIC) [8] | MIC [8] [µg/mL] | selectivity index (EC50/MIC) [9] | MIC [9] [µg/mL] | selectivity index (EC50/MIC) [10] | MIC [10] [µg/mL] | selectivity index (EC50/MIC) [11] | MIC [11] [µg/mL] | other results
1 | NCCCCN1C(=O)N(CCCCN)C(=O)C(Cc2cc(Br)cc(Br)c2)(Cc2cc(Br)cc(Br)c2)C1=O [7(ii)] | 83 (≈ 108 µM) | 6 (≈ 7.83 µM) | 4 (≈ 5.22 µM) | (21) | 8 (≈ 10.4 µM) | (10) | 4 (≈ 5.22 µM) | (21) | 4 (≈ 5.22 µM) | (21) | (21) | 4 (≈ 5.22 µM) | (21) | 4 (≈ 5.22 µM) | (21) | 4 (≈ 5.22 µM) | (21) | 4 (≈ 5.22 µM) | (21) | 4 (≈ 5.22 µM) | MIC [12]: 16 µg/mL (≈ 20.9 µM); selectivity index (EC50/MIC) [12]: (5); MIC [13]: 16 µg/mL (≈ 20.9 µM); selectivity index (EC50/MIC) [13]: (5); MIC [14]: 16 µg/mL (≈ 20.9 µM); selectivity index (EC50/MIC) [14]: (5); MIC [15]: 16 µg/mL (≈ 20.9 µM); selectivity index (EC50/MIC) [15]: (5); MIC [16]: 1 to 8 µg/mL (≈ 1.31 to 10.4 µM)
2 | NCCCCN1C(=O)N(CCCCN)C(=O)C(Cc2ccc3ccccc3c2)(Cc2ccc3ccccc3c2)C1=O [7(iv), 1,3-bis(4-aminobutyl)-5,5-bis(naphtalen-2-yl-methyl)-pyrimidin-2,4,6(1H,3H,5H)-trione] | 243 (≈ 441 µM) | 4 (≈ 7.26 µM) | 8 (≈ 14.5 µM) | (30) | 16 (≈ 29.1 µM) | (15) | 16 (≈ 29.1 µM) | (15) | 16 (≈ 29.1 µM) | (15) | (30) | 8 (≈ 14.5 µM) | (30) | 8 (≈ 14.5 µM) | (30) | 8 (≈ 14.5 µM) | (30) | 8 (≈ 14.5 µM) | (30) | 8 (≈ 14.5 µM) | MIC ([17]; Enterococcus faecium, TUH5022, read-out: Antimicrobial activity (MIC)): 8 µg/mL (≈ 14.5 µM); selectivity index (EC50/MIC) ([17]; RBC EC50 / MIC): (30); MIC [12]: 32 µg/mL (≈ 58.1 µM); selectivity index (EC50/MIC) [12]: (8); MIC [13]: 32 µg/mL (≈ 58.1 µM); selectivity index (EC50/MIC) [13]: (8); MIC [14]: 32 µg/mL (≈ 58.1 µM); selectivity index (EC50/MIC) [14]: (8); MIC [15]: 32 µg/mL (≈ 58.1 µM); selectivity index (EC50/MIC) [15]: (8)

Reference: patent US11072588B2, “Barbituric acid derivatives comprising cationic and lipophilic groups” (UNIVERSITETET I TROMSØ—NORGES ARKTISKE UNIVERSITET, priority 2017, dated 2021)
